Results from patent publication US9795607B2, “Substituted pyrrolopyrimidine compounds, compositions thereof, and methods of treatment therewith” (Signal Pharmaceutical, LLC, priority 2013, dated 2017).
Where two headings read alike, the source gives them in different places.

System: Triple negative breast cancer cell line CAL51
Experiment: Cell Titer Glo proliferation assay, CAL51
Format: cell-based
Conditions: Homo sapiens, CAL-51, read-out: Act. Level
Procedure: Cell Titer Glo Proliferation Assay.
Triple negative breast cancer cell line CAL51 was purchased from DSMZ. […] Allcell lines were maintained in growth media consisting of 90% high glucose Dulbecco's Modified Eagle Medium or RPMI1640 (Invitrogen), 10% fetal bovine serum (Hyclone), and 2 mM L-glutamine (Invitrogen). […] After overnight culture, compound stock (30 mM) was diluted serially in DMSO, further diluted in growth media, and was added to each well as a 10× concentrated solution in a volume of 11 μL, mixed, and allowed to incubate with cells. The compound vehicle (DMSO) was maintained at a final concentration of 0.2% in all wells. After 72 h, 100 μL of Cell Titer Glo solution (Promega) was added to each well of the 96-well plate. The plate was placed on a shaker for 2 minutes. After 10 minutes incubation, the luminescence signal was detected with Envision microplate reader (Perkin Elmer).

[1] = CAL51 cell proliferation, Cell Titer Glo
[2] = CAL51 cell proliferation (Table 1)

| SMILES | IC50 [1] [nM] | IC50 [2] [nM] |
| --- | --- | --- |
| COc1cc(C(=O)NC2CN(C)C2)ccc1Nc1nc(OC(C)C)c2c(-c3ccc4nc(C)oc4c3)c[nH]c2n1 [Example 356, 4-(4-isopropoxy-5-(2-methylbenzo[d]oxazol-6-yl)-7H-pyrrolo[2,3-d]pyrimidin-2-ylamino)-3-methoxy-N-(1-methylazetidin-3-yl)benzamide] | < 100 |  |
| CNC(=O)c1ccc(Nc2nc(NC3CCOCC3)c3c(-c4ccc5nc(C)oc5c4)c[nH]c3n2)c(Cl)c1 [Example 430, 3-chloro-N-methyl-4-(5-(2-methylbenzo[d]oxazol-6-yl)-4-(tetrahydro-2H-pyran-4-ylamino)-7H-pyrrolo[2,3-d]pyrimidin-2-ylamino)benzamide] |  | < 100 |
| COc1nc(Nc2ccc(C(=O)N(C)C)cc2C)nc2[nH]cc(-c3ccc4c(c3)nc(C)n4C)c12 [Example 410, 4-(5-(1,2-dimethyl-1H-benzo[d]imidazol-5-yl)-4-methoxy-7H-pyrrolo[2,3-d]pyrimidin-2-ylamino)-N,N,3-trimethylbenzamide] |  | 1000 to 10000 |
| CNC(=O)c1ccc(-c2c[nH]c3nc(Nc4ccc(C(=O)NC5COC5)cc4OC)nc(O[C@H]4CCOC4)c23)cc1 [Example 376, (S)-3-methoxy-4-(5-(4-(methylcarbamoyl)phenyl)-4-(tetrahydrofuran-3-yloxy)-7H-pyrrolo[2,3-d]pyrimidin-2-ylamino)-N-(oxetan-3-yl)benzamide] | < 100 |  |
| COc1cc(C(=O)N2CC2)ccc1Nc1nc(OC)c2c(-c3ccncc3)c[nH]c2n1 [Example 338, aziridin-1-yl(3-methoxy-4-(4-methoxy-5-(pyridin-4-yl)-7H-pyrrolo[2,3-d]pyrimidin-2-ylamino)phenyl)methanone] | 400 to 1000 |  |
| CNC(=O)c1ccc(Nc2nc(OC3CCOCC3)c3c(-c4cncc(OC)c4)c[nH]c3n2)c(OC)c1 [Example 325, 3-methoxy-4-(5-(5-methoxypyridin-3-yl)-4-(tetrahydro-2H-pyran-4-yloxy)-7H-pyrrolo[2,3-d]pyrimidin-2-ylamino)-N-methylbenzamide] | 100 to 400 |  |
| COc1cc(C(=O)NC2COC2)ccc1Nc1nc(OC)c2c(-c3ccnc(Cl)c3)c[nH]c2n1 [Example 394, 4-(5-(2-chloropyridin-4-yl)-4-methoxy-7H-pyrrolo[2,3-d]pyrimidin-2-ylamino)-3-methoxy-N-(oxetan-3-yl)benzamide] | 100 to 400 |  |
| COc1cc(C(=O)NC2COC2)ccc1Nc1nc(OC)c2c(-c3cn(C)nc3C)c[nH]c2n1 [Example 387, 4-(5-(1,3-dimethyl-1H-pyrazol-4-yl)-4-methoxy-7H-pyrrolo[2,3-d]pyrimidin-2-ylamino)-3-methoxy-N-(oxetan-3-yl)benzamide] | 1000 to 10000 |  |
| COc1cc(C(=O)NC2COC2)ccc1Nc1nc(OC)c2c(-c3ccnc(F)c3)c[nH]c2n1 [Example 381, 4-(5-(2-fluoropyridin-4-yl)-4-methoxy-7H-pyrrolo[2,3-d]pyrimidin-2-ylamino)-3-methoxy-N-(oxetan-3-yl)benzamide] | 100 to 400 |  |
| COc1nc(Nc2ccc(C(=O)N(C)C)cc2C)nc2[nH]cc(-c3ccc(-c4ncc[nH]4)cc3)c12 [Example 397, 4-(5-(4-(1H-imidazol-2-yl)phenyl)-4-methoxy-7H-pyrrolo[2,3-d]pyrimidin-2-ylamino)-N,N,3-trimethylbenzamide] | < 100 |  |
| CNC(=O)c1ccc(-c2c[nH]c3nc(Nc4ccc(C(=O)NC5COC5)cc4OC)nc(OC4CC4)c23)cc1 [Example 344, 4-(4-cyclopropoxy-5-(4-(methylcarbamoyl)phenyl)-7H-pyrrolo[2,3-d]pyrimidin-2-ylamino)-3-methoxy-N-(oxetan-3-yl)benzamide] | 100 to 400 |  |
| CNC(=O)c1ccc(-c2c[nH]c3nc(Nc4ccc(C(=O)N5CC5)cc4OC)nc(O[C@H]4CC[C@@](C)(O)CC4)c23)cc1 [Example 336, 4-(2-(4-(aziridine-1-carbonyl)-2-methoxyphenylamino)-4-((1s,4s)-4-hydroxy-4-methylcyclohexyloxy)-7H-pyrrolo[2,3-d]pyrimidin-5-yl)-N-methylbenzamide] | < 100 |  |
| CNC(=O)c1ccc(-c2c[nH]c3nc(Nc4ccc(C(=O)NC)cc4Cl)nc(NC4CCOCC4)c23)cc1 [Example 433, 3-chloro-N-methyl-4-(5-(4-(methylcarbamoyl)phenyl)-4-(tetrahydro-2H-pyran-4-ylamino)-7H-pyrrolo[2,3-d]pyrimidin-2-ylamino)benzamide] |  | < 100 |
| COc1cc(C(=O)NC2COC2)ccc1Nc1nc(OC)c2c(-c3ccncc3)c[nH]c2n1 [Example 347, 3-methoxy-4-(4-methoxy-5-(pyridin-4-yl)-7H-pyrrolo[2,3-d]pyrimidin-2-ylamino)-N-(oxetan-3-yl)benzamide] | 100 to 400 |  |
| COc1nc(Nc2ccc(C(=O)N(C)C)cc2C)nc2[nH]cc(-c3ccc(F)cc3)c12 [Example 390, 4-(5-(4-fluorophenyl)-4-methoxy-7H-pyrrolo[2,3-d]pyrimidin-2-ylamino)-N,N,3-trimethylbenzamide] | 1000 to 10000 |  |
| COc1cc(C(=O)NC2CN(C)C2)ccc1Nc1nc(OC2CCCC2)c2c(-c3ccc(-c4ncc[nH]4)cc3)c[nH]c2n1 [Example 361, 4-(5-(4-(1H-imidazol-2-yl)phenyl)-4-(cyclopentyloxy)-7H-pyrrolo[2,3-d]pyrimidin-2-ylamino)-3-methoxy-N-(1-methylazetidin-3-yl)benzamide] | 100 to 400 |  |
| COc1nc(Nc2ccc(C(=O)N(C)C)cc2C)nc2[nH]cc(-c3cc(C)nc(F)c3)c12 [Example 420, 4-(5-(2-fluoro-6-methylpyridin-4-yl)-4-methoxy-7H-pyrrolo[2,3-d]pyrimidin-2-ylamino)-N,N,3-trimethylbenzamide] |  | < 100 |
| COc1cc(C(=O)N2C[C@@H]2CO)ccc1Nc1nc(OC2CCCC2)c2c(-c3ccc4nc(C)oc4c3)c[nH]c2n1 [Example 346, (R)-(4-(4-(cyclopentyloxy)-5-(2-methylbenzo[d]oxazol-6-yl)-7H-pyrrolo[2,3-d]pyrimidin-2-ylamino)-3-methoxyphenyl)(2-(hydroxymethyl)aziridin-1-yl)methanone] | 100 to 400 |  |
| COc1nc(Nc2ccnn2C)nc2[nH]cc(-c3ccncc3)c12 [Example 401, 4-methoxy-N-(1-methyl-1H-pyrazol-5-yl)-5-(pyridin-4-yl)-7H-pyrrolo[2,3-d]pyrimidin-2-amine] |  | 1000 to 10000 |
| CNC(=O)c1ccc(-c2c[nH]c3nc(Nc4ccc(C(=O)NC5COC5)cc4OC)nc(OC4CCC4)c23)cc1F [Example 353, 4-(4-cyclobutoxy-2-(2-methoxy-4-(oxetan-3-ylcartbamoyl)phenylamino)-7H-pyrrolo[2,3-d]pyrimidin-5-yl)-2-fluoro-N-methylbenzamide] | 1000 to 10000 |  |
| CNC(=O)c1ccc(Nc2nc(OC)c3c(-c4ccc5c(C)noc5c4)c[nH]c3n2)c(OC)c1 [Example 388, 3-methoxy-4-(4-methoxy-5-(3-methylbenzo[d]isoxazol-6-yl)-7H-pyrrolo[2,3-d]pyrimidin-2-ylamino)-N-methylbenzamide] | 100 to 400 |  |
| Cc1nc2ccc(-c3c[nH]c4nc(Nc5cnn(C6CCOCC6)c5Cl)nc(OC5CCCC5)c34)cc2o1 [Example 377, N-(5-chloro-1-(tetrahydro-2H-pyran-4-yl)-1H-pyrazol-4-yl)-4-(cyclopentyloxy)-5-(2-methylbenzo[d]oxazol-6-yl)-7H-pyrrolo[2,3-d]pyrimidin-2-amine] | < 100 |  |
| CNC(=O)c1ccc(-c2c[nH]c3nc(Nc4ccc(C(=O)NC5COC5)cc4OC)nc(OCCOC)c23)cc1 [Example 373, 3-methoxy-4-(4-(2-methoxyethoxy)-5-(4-(methylcarbamoyl)phenyl)-7H-pyrrolo[2,3-d]pyrimidin-2-ylamino)-N-(oxetan-3-yl)benzamide] | 100 to 400 |  |
| COc1cc(C(=O)NC2COC2)ccc1Nc1nc(OC)c2c(-c3ccncn3)c[nH]c2n1 [Example 395, 3-methoxy-4-(4-methoxy-5-(pyrimidin-4-yl)-7H-pyrrolo[2,3-d]pyrimidin-2-ylamino)-N-(oxetan-3-yl)benzamide] | 1000 to 10000 |  |
| Cc1nc2ccc(-c3c[nH]c4nc(Nc5ccc(C(=O)NCCO)cc5Cl)nc(OC5CCOCC5)c34)cc2o1 [Example 431, 3-chloro-N-(2-hydroxyethyl)-4-(5-(2-methylbenzo[d]oxazol-6-yl)-4-(tetrahydro-2H-pyran-4-yloxy)-7H-pyrrolo(2,3-d]pyrimidin-2-ylamino)benzamide] |  | < 100 |
| COc1ccc(-c2c[nH]c3nc(Nc4ccc(C(=O)N(C)C)cc4C)nc(OC)c23)cc1 [Example 391, 4-(4-methoxy-5-(4-methoxyphenyl)-7H-pyrrolo[2,3-d]pyrimidin-2-ylamino)-N,N,3-trimethylbenzamide] | 100 to 400 |  |
| COc1cc(C(=O)N(C)C)ccc1Nc1nc(OC)c2c(-c3cc(C)nc(F)c3)c[nH]c2n1 [Example 418, 4-(5-(2-fluoro-6-methylpyridin-4-yl)-4-methoxy-7H-pyrrolo[2,3-d]pyrimidin-2-ylamino)-3-methoxy-N,N-dimethylbenzamide] |  | < 100 |
| COc1cc(C(=O)NC2CN(C)C2)ccc1Nc1nc(O[C@H]2CCOC2)c2c(-c3ccc4nc(C)oc4c3)c[nH]c2n1 [Example 374, (S)-3-methoxy-N-(1-methylazetidin-3-yl)-4-(5-(2-methylbenzo[d]oxazol-6-yl)-4-(tetrahydrofuran-3-yloxy)-7H-pyrrolo[2,3-d]pyrimidin-2-ylamino)benzamide] | < 100 |  |
| COc1cc(C(=O)NC2COC2)ccc1Nc1nc(OC)c2c(-c3cnn(C)c3)c[nH]c2n1 [Example 382, 3-methoxy-4-(4-methoxy-5-(1-methyl-1H-pyrazol-4-yl)-7H-pyrrolo[2,3-d]pyrimidin-2-ylamino)-N-(oxetan-3-yl)benzamide] | 100 to 400 |  |
